Blank lines part the entries; values can stand above or below the compound they belong to.
Legend:
human GLP1R (hGLP1R) = human GLP1R (hGLP1R) (Homo sapiens, UniProt P43220); test: Human GLP1R cAMP agonist assay (GloSensor); format: cell-based; conditions: HEK293-SNAP-hGLP1R-GloSensor cells; for EC50: intracellular cAMP, mean n=3 where SEM is given; for Emax: read-out: Emax mean
Method: Compounds 1 to 31 were tested in the following cellular assays that measure the intracellular cAMP concentration, beta-arrestin recruitment and receptor internalization. The cAMP is generated by the activation of GLP1R. The cAMP data obtained is shown in Table 1 (where S.E.M. is included, mean n=3 independent experiments+/−S.E.M). Beta-arrestin is recruited upon activation of GLP1R and the data obtained are shown in Table 2 (mean n=2 independent experiments, +/−S.D). The extent to which the GLP1R is internalized into the cell and away from the plasma membrane following activation is also shown in Table 2 (mean n=2 independent experiments, +/−S.D). EC50 for each assay is defined as the concentration of the compound that leads to half of the maximum response (after baseline correction). Emax is defined as the maximum response observed for the test compound, normalized to the maximum response observed for the endogenous ligand (GLP1(7-36)) to GLP1R.
Human GLP1R cAMP Agonist Assay
The agonist activity of compounds was determined using the GloSensor™ cAMP Assay (Promega Corp.), which measures changes in the intracellular concentration of cAMP after ligand activation of GPCRs. The assay uses a biosensor encoded by pGloSensor™-22F cAMP plasmid (Promega, cat #E2301) with cAMP binding domains fused to a mutant form of Photinus pyralis luciferase. Binding to cAMP causes conformational changes that promote large increases in light output, which can be measured by a luminescence detector. HEK293-SNAP-hGLP1R-GloSensor cells stably overexpressing the human GLP1 receptor (hGLP1R) and pGloSensor™-22F were seeded in white 384-well poly-D-Lysine coated plates (Greiner Bio One, cat #781945) in CO2-independent media (Gibco cat #18045-088 with 1.0% FBS, 2 mM L-glutamine, penicillin and streptomycin) and incubated overnight at 37° C., 5% CO2 with humidity. The assay was started the following morning by adding an equal volume of CO2-independent media containing 4% v/v dilution of the GloSensor substrate (Promega, cat #E1291) to all wells. The cell plate was incubated at rt for 2 h in the dark. The Biomek 7 (Beckman Coulter) instrument was used for the liquid handling steps. To generate duplicate dose response curves, 3-fold serially diluted compounds were added in to the cell assay plate to a final volume of 60 μL with final concentrations ranging from 30 μM through 0.06 μM in CO2-independent media containing 0.1% BSA, 0.5 mM IBMX and 0.4% DMSO. In the same plate and assay buffer as the tested compounds, were EC100 control wells containing GLP1 (7-36) peptide (Bachem, cat #H-6795) at a final concentration of 2 nM and also EC0 control wells containing no peptide. This plate was incubated at rt in the dark for 12 min after adding the compounds to the cells. Luminescence was then measured with an Envision 2104 Multilabel reader with “TRF Light Unit, 337 nm” (PerkinElmer) using the Ultra-Sensitive protocol setting “384-well US luminescence detector” with the 384-well luminescence aperture, 0.1 seconds per well. cAMP activity was calculated as percent of the GLP1 (7-36) EC100 control wells: [(sample signal−mean EC0 signal)/(mean EC100 of GLP1 (7-36) signal−mean EC0 signal)}*100. Curve fitting for EC50 determinations was performed in the Helios module of the software package DAVID. The 4-parameter logistic model, Hill slope was used: y=Ainf+(A0−Ainf)/(1+(x/AC50)^Hill Slope) where y is the functional response; x is the compound concentration; A0 is the minimum value (at 0 dose); Ainf is the maximum value (at infinite dose); AC50 corresponds to the point of inflection (i.e. the point on the sigmoid shaped curve halfway between A0 and Ainf). The EC50 value was represented by the AC50 value calculated from Helios in μM. Emax is the maximal activity detected within the concentration range, derived from the fitted curve. […]

[1] = Pharmacokinetics in C57BL/6 mice (i.v. and oral); conditions: for BAV: male C57BL/6 mice, 3 mg/kg oral dose vs 1 mg/kg i.v.; for AUC(0-inf) / Vd / clearance / half-life / Cmax / Tmax: male, C57BL/6, mouse
Method: Blood concentration versus time profiles were obtained from 2 groups of 3 male mice. The compound was administered intravenously (i.v.) by bolus injection (5 mL/kg) at a dose of 1 mg/kg in N-methyl-2-pyrrolidone (10%) and 4% bovine serum albumins (BSA) in phosphate-buffered saline (PBS) (90%) or orally administered at a dose of 3 mg/kg (10 mL/kg) as a homogenous suspension of Water (99.4%), Tween 80 (0.1%) and methylcellulose (0.5%). Following compound administration, blood (10 μL/time point) were collected by puncture of the tail vein into ethylenediaminetetraacetic (EDTA)-coated tubes, at 0.083 (i.v. only), 0.25, 0.5, 1, 3, 7, & 24 hours post dose.
Bioanalysis: An aliquot of 10 μL of blood sample and matrix calibration standards were added to a 96-well plate. The samples were extracted using a protein precipitation procedure with addition of 80 μL acetonitrile containing internal standard. The samples were vortexed and centrifuged at 3000 rpm for 5 minutes. A 70 μL aliquot of supernatant was transferred to a clean 96-well plate and a 70 μL of water was added to each well and vortexed. Samples were analyzed and quantified by LC-MS/MS using the conditions outlined below.
• Mass Spectrometer: AP16500+ • Liquid Chromatograph: Agilent 1290 for Compound 3; Shimadzu LC30 AD for Compound 5 • Autosampler (ALS): Agilent 1290 for Compound 3; Shimadzu SIL30AC for Compound 5
• LC Column Acquity BEH C18, 50×2.1 mm, 1.7 μm • Solvent A: • 5:95:0.1 (v:v:v) Acetonitrile:Water:Formic Acid for Compound 3 • 100:0.1 (v:v) Water:Formic acid for Compound 5 • Solvent B: • 50:50:0.1 (v:v:v) Acetonitrile:Methanol:Formic Acid for Compound 3 • 100:0.1 (v:v) Acetonitrile:Formic acid for Compound 5 • Injection Volume [μL]: 1 for Compound 5; 20 for Compound 3 • Column Oven Temp. [° C.]: 50 Compound 3; 40 for Compound 5 • ALS Temp. [° C.]: 5
• Ion Source: TIS • Polarity: Positive • Temperature: 550 • Gas 1: 55 • Gas 2: 55 • Curtain Gas: 20 • Ion Spray Voltage [V]: 5500 for Compound 5; 4500 for Compound 3 • CAD Gas: 9

[2] = cAMP, normalized to GLP1(7-36) maximum response

Chain of human GLP1R (hGLP1R) (P43220 24-463): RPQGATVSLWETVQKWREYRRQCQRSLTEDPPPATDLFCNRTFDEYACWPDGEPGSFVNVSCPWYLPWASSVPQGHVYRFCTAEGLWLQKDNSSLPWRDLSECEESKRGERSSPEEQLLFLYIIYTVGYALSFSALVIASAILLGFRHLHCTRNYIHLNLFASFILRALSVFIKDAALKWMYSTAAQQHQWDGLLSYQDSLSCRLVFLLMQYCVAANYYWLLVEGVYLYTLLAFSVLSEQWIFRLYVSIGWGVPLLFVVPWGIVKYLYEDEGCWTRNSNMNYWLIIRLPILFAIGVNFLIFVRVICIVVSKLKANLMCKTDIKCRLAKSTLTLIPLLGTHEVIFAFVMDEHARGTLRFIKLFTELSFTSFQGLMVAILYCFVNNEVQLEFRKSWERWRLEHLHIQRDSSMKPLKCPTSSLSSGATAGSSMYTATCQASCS

- Emax mean (human GLP1R (hGLP1R); [2]): 106%
- EC50 (human GLP1R (hGLP1R)): 1.2 nM
SMILES: CC(Cc1cnc(CN2CCC(c3cccc4c3O[C@@](C)(c3ccc(Cl)cc3F)O4)CC2)n1C[C@@H]1CCO1)C(=O)O (single isomer, unassigned) [Compound C-17b]

- Emax (human GLP1R (hGLP1R); [2]): 109%
- EC50 (human GLP1R (hGLP1R)): 0.418 nM
SMILES: Cc1nc(CN2CCC(c3cccc4c3O[C@@](C)(c3ccc(Cl)cc3F)O4)CC2)n(C[C@@H]2CCO2)c1C1CC1C(=O)O (stereo partly shown) [Compound C-9]

SMILES: Cc1nc(CN2CCC(c3cccc4c3O[C@@](C)(c3ccc(Cl)cc3F)O4)CC2)n(C[C@@H]2CCO2)c1C(=O)O [Compound 3]
- BAV [1]: 50.1 ± 19.4%
- AUC(0-inf) ([1]; in vivo, iv, 1 mg/kg): 2.79 ± 1.35 µM·h
- Vd ([1]; in vivo, iv, 1 mg/kg): 0.903 ± 0.282 L/kg
- clearance ([1]; in vivo, iv, 1 mg/kg): 12.3 ± 4.78 mL/min/kg
- half-life ([1]; in vivo, iv, 1 mg/kg): 1.28 ± 0.223 h
- AUC(0-inf) ([1]; in vivo, po, 3 mg/kg): 3.74 ± 0.641 µM·h
- Cmax ([1]; in vivo, po, 3 mg/kg): 1470 ± 354 nM
- Tmax ([1]; in vivo, po, 3 mg/kg): 0.667 ± 0.289 h
- half-life ([1]; in vivo, po, 3 mg/kg): 1.84 ± 0.8 h

SMILES: Cc1nc(CN2CCC(c3cccc4c3O[C@@](C)(c3ccc(Cl)cc3F)O4)CC2)n(C[C@@H]2CCO2)c1/C=C/C(=O)O [Compound 5]
- AUC(0-inf) ([1]; whole blood, iv, 1 mg/kg): 5.02 ± 0.629 µM·h
- Vd ([1]; whole blood, iv, 1 mg/kg): 0.604 ± 0.02 L/kg
- clearance ([1]; whole blood, iv, 1 mg/kg): 5.76 ± 0.711 mL/min/kg
- half-life ([1]; whole blood, iv, 1 mg/kg): 1.42 ± 0.121 h
- AUC(0-inf) ([1]; whole blood, po, 3 mg/kg): 7.91 ± 0.764 µM·h
- Cmax ([1]; whole blood, po, 3 mg/kg): 1060 ± 450 nM
- Tmax ([1]; whole blood, po, 3 mg/kg): 1 h
- half-life ([1]; whole blood, po, 3 mg/kg): 2.82 ± 0.74 h

SMILES: C[C@]1(c2ccc(Cl)cc2F)Oc2cccc(C3CCN(Cc4nc5ccc(C(=O)O)cc5n4C[C@@H]4CCO4)CC3)c2O1 [compound 1, 2-((4-((S)-2-(4-chloro-2-fluorophenyl)-2-methylbenzo[d][1,3]dioxol-4-yl)piperidin-1-yl)methyl)-1-(((S)-oxetan-2-yl)methyl)-1H-benzo[d]imidazole-6-carboxylic acid, reference compound]
- BAV [1]: 50.7%
- AUC(0-inf) ([1]; in vivo, iv, 1 mg/kg): 1.19 ± 0.205 µM·h
- Vd ([1]; in vivo, iv, 1 mg/kg): 2.13 ± 0.434 L/kg
- clearance ([1]; in vivo, iv, 1 mg/kg): 24.1 ± 4.52 mL/min/kg
- half-life ([1]; in vivo, iv, 1 mg/kg): 1.25 ± 0.02 h
- AUC(0-inf) ([1]; in vivo, po, 3 mg/kg): 1.98 µM·h
- Cmax ([1]; in vivo, po, 3 mg/kg): 430 ± 53.4 nM
- Tmax ([1]; in vivo, po, 3 mg/kg): 1 h
- half-life ([1]; in vivo, po, 3 mg/kg): 3.19 h

- Emax (human GLP1R (hGLP1R); [2]): 113%
- EC50 (human GLP1R (hGLP1R)): 2.96 nM
SMILES: CCc1nc(CN2CCC(c3cccc4c3O[C@@](C)(c3ccc(Cl)cc3F)O4)CC2)n(C[C@@H]2CCO2)c1C(=O)O [Compound C-27, 2-((4-((S)-2-(4-chloro-2-fluorophenyl)-2-methylbenzo[d][1,3]dioxol-4-yl)piperidin-1-yl)methyl)-4-ethyl-1-(((S)-oxetan-2-yl)methyl)-1H-imidazole-5-carboxylic acid]

- Emax (human GLP1R (hGLP1R); [2]): 110%
- EC50 (human GLP1R (hGLP1R)): 8.63 nM
SMILES: C[C@]1(c2ccc(Cl)cc2F)Oc2cccc(C3CCN(Cc4nc(-c5nnn[nH]5)c(C(F)(F)F)n4C[C@@H]4CCO4)CC3)c2O1 [Compound C-25, 4-((S)-2-(4-chloro-2-fluorophenyl)-2-methylbenzo[d][1,3]dioxol-4-yl)-1-((1-(((S)-oxetan-2-yl)methyl)-4-(1H-tetrazol-5-yl)-5-(trifluoromethyl)-1H-imidazol-2-yl)methyl)piperidine]

From patent US20240182456A1, “2-((4-((S)-2-(4-CHLORO-2-FLUOROPHENYL)-2-METHYLBENZO[D][1,3]DIOXOL-4-YL)PIPERIDIN-1-YL)METHYL)-1-(((S)-OXETAN-2-YL)METHYL)-1H-IMIDAZOLE DERIVATIVES AS ACTIVATORS OF THE GLP1 RECEPTOR FOR THE TREATMENT OF OBESITY” (Novartis AG, priority 2021, published 2024)
